Laboratory results as given in patent US5863913A, “Aromatic compound and pharmaceutical composition” (Kureha Chemical Industry Co., Ltd., priority 1996, dated 1999).

Key:
[1] = Oral absorption (amount of compound in rat serum by HPLC, area under curve); assay type: in vivo, Sprague-Dawley female rats; details: single dosage 160 mg/kg in water, 0.5 to 24 hours, average of 3 rats
Experimental: Twelve-week-old Sprague-Dawley female rats (3 rats per group) were bred for acclimation for a week. Then, the compounds of the present invention and a reference substrate were dissolved in water, and orally administered to the rats in a single dosage (160 mg/kg). After 0.5 hour, 1 hour, 2 hours, 4 hours, 6 hours, 8 hours, and 24 hours, the amounts of each compound (ng) per 1 ml of serum were measured using HPLC. Curves were obtained from the relation between an elapsed time after administration and the amount of the compound in serum at each elapsed time, respectively, and an average of the areas under the curves was calculated.
As a reference substance, Compound No. 184 disclosed in Japanese Unexamined Patent Publication (Kokai) No. 8-48651 was used. Compound No. 184 corresponds to the compound of the formula (I) wherein R^1 =nBu, A=N, Z=C, R^2 =CO, R^3 =NC4 H8 O, R^4 =H, R^5 =Me, and R^6 =Me.

ICR female mice = experiment: Acute toxicity, single oral dose in mice; details: mouse, in vivo
Experimental: The aromatic compounds of the formula (I) according to the present invention were orally administered to mice at the dose of 500 mg/kg, but no fatalities were observed over a period of one week.
Five-week-old ICR female mice (5 mice per group) were bred for acclimation for a week. Then, the compounds of the present invention were dissolved in water, and orally administered to the mice in a single dosage (500 mg/kg).

[2] = system: kidney disease model rats; experiment: Action to lower blood pressure in kidney disease model rats (tail cuff); assay type: in vivo, Sprague-Dawley female rats; details: systolic, average of 8 rats, 20 mg/kg with drinking water, two days after administration; control 210
Experimental: The compounds of the present invention and the reference substance were administered with drinking water to kidney disease model rats, and the action of lowering the blood pressure was observed. The kidney disease model rats were prepared by a ligature of branches of renal artery in accordance with a conventional method. Namely, the left hilum renalis of Sprague-Dawley female rats was exposed under anesthesia, and one of four secondary branches of the renal artery was left unligated, while the remaining three branches were ligated, respectively. After a week, the hilum renalis (artery, vein, and ureter) of the right kidney were further ligated to thereby prepare rats whose renal function was lowered to approximately 1/8 of the normal function. Each group consisted of eight rats. The drugs to be tested (20 mg/kg) were administered to each administering group, and only water was administered to a control group. Two days after the administration, the systolic blood pressure was measured by the tail cuff method using a blood pressure measuring apparatus (UR5000; Ueda).

Row | Structure (SMILES) | AUC at 24 h [1] | Number of deaths/number of survivals (ICR female mice) | Blood Pressure [2]
1 | CCCCC(=O)N(Cc1ccc(C(=O)OCCN(C)C)cc1)c1cc(C(=O)N2CCOCC2)ccc1N(C)C [Compound No. 1, 4-dimethylamino-3-N-[[[4-(2'-dimethylaminoethoxycarbonyl)phenyl]methyl]valeramido]benzoic acid morpholide] | 13900 ng·h/mL | 0/5 | 205 mmHg
2 | CCCCC(=O)N(Cc1ccc(C(=O)OCCCN(C)C)cc1)c1cc(C(=O)N2CCOCC2)ccc1N(C)C [Compound No. 2, 4-dimethylamino-3-N-[[[4-(3'-dimethylaminopropoxycarbonyl)phenyl]methyl]valeramido]benzoic acid morpholide] | 10700 ng·h/mL | 0/5 | 200 mmHg
3 | CCCCC(=O)N(Cc1ccc(C(=O)OCCCN)cc1)c1cc(C(=O)N2CCOCC2)ccc1N(C)C [Compound No. 3, 3-N-[[[4-(3'-aminopropoxycarbonyl)phenyl]methyl]valeramido]-4-dimethylaminobenzoic acid morpholide] | 9530 ng·h/mL | 0/5 | 203 mmHg
4 | CCCCC(=O)N(Cc1ccc(C(=O)OCCN(C)C)cc1)c1cc(C(=O)N2CCOCC2)ccc1C(C)C [Compound No. 6, 3-N-[[[4-(2'-dimethylaminoethoxycarbonyl)phenyl]methyl]valeramido]-4-i-propylbenzoic acid morpholide] | 34700 ng·h/mL | 0/5 | 209 mmHg
5 | CCCCC(=O)N(Cc1ccc(C(=O)OCCCN(C)C)cc1)c1cc(C(=O)N2CCOCC2)ccc1C(C)C [Compound No. 7, 3-N-[[[4-(3'-dimethylamino-1'-propoxycarbonyl)phenyl]methyl]valeramido]-4-i-propylbenzoic acid morpholide] | 14000 ng·h/mL | 0/5 | 206 mmHg
6 | CCCCC(=O)N(Cc1ccc(C(=O)OCCN(CC)CC)cc1)c1cc(C(=O)N2CCOCC2)ccc1C(C)C [Compound No. 8, 3-N-[[[4-(2'-diethylaminoethoxycarbonyl)phenyl]methyl]valeramido]-4-i-propylbenzoic acid morpholide] | 24600 ng·h/mL | 0/5 | 203 mmHg
7 | CCCCC(=O)N(Cc1ccc(C(=O)OCCN2CCOCC2)cc1)c1cc(C(=O)N2CCOCC2)ccc1C(C)C [Compound No. 9, 3-N-[[[4-(2'-morpholinoethoxycarbonyl)phenyl]methyl]valeramido]-i-propylbenzoic acid morpholide] | 50300 ng·h/mL | 0/5 | 207 mmHg
8 | CCCCCCC(=O)N(Cc1ccc(C(=O)O)cc1)c1cc(C(=O)N2CCN(CCC)CC2)ccc1N(C)C [Compound No. 12, 4-dimethylamino-3-N-[[(4-carboxyphenyl)methyl]n-heptanamido]benzoic acid 4'-n-propyl piperazide] | 32200 ng·h/mL | 0/5 | 202 mmHg
9 | CCCCCCC(=O)N(Cc1ccc(C(=O)O)cc1)c1cc(C(=O)N2CCN(C)CC2)ccc1N(C)C [Compound No. 13, 3-[[(4-carboxyohenyl)methyl]n-heptanamido]-4-dimethylaminobenzoic acid 4'-methylpiperazide] | 1460 ng·h/mL | 0/5 | 208 mmHg
10 | CCCCC(=O)N(Cc1ccc(C(=O)O)cc1)c1cc(C(=O)N2CCN(C)CC2)ccc1C(C)C [Compound No. 15, 3-[[(4-carboxyphenyl)methyl]valeramido]-4-i-propylbenzoic acid 4'-methylpiperazide] | 5670 ng·h/mL | 0/5 | 200 mmHg
11 | CCCCCCC(=O)N(Cc1ccc(C(=O)O)cc1)c1cc(C(=O)N2CCN(C)CC2)ccc1C(C)C [Compound No. 18, 3-N-[[(4-carboxyphenyl)methyl]n-heptanamido]-4-i-propylbenzoic acid 4'-methylpiperazide] | 12800 ng·h/mL | 0/5 | 210 mmHg
12 | CCCCC(=O)N(Cc1ccc(C(=O)O)cc1)c1cc(C(=O)N2CCN(CCC)CC2)ccc1C(C)C [Compound No. 19, 3-[[(4-carboxyphenyl)methyl]valeramido]-4-i-propylbenzoic acid 4'-n-propylpiperazide] | 172000 ng·h/mL | 0/5 | 194 mmHg
13 | CCCCCCC(=O)N(Cc1ccc(C(=O)O)cc1)c1cc(C(=O)N2CCN(CCC)CC2)ccc1C(C)C [Compound No. 20, 3-N-[[(4-carboxyphenyl)methyl]n-heptanamido]-4-i-propylbenzoic acid 4'-n-propylpiperazide] | 183000 ng·h/mL | 0/5 | 209 mmHg
